According to ChEMBL document CHEMBL3526094, “Methadone N-demethylation by the common CYP2B6 allelic variant CYP2B6.6” (Drug Metab Dispos, 2013):

Columns and labels:
Assay type in all cases: ADME
Conditions in all cases: human, recombinant enzyme
[1] = Drug metabolism assessed as recombinant CYP2B6.1 (unknown origin) expressed in insect cell microsomes-mediated R-2-ethyl-1,5-dimethyl-3,3-diphenylpyrrolidine formation at 0.25 to 2 uM after 10 mins high-pressure liquid chromatography analysis
[2] = Drug metabolism assessed as recombinant CYP2B6.1 (unknown origin) expressed in insect cell microsomes-mediated S-2-ethyl-1,5-dimethyl-3,3-diphenylpyrrolidine formation at 0.25 to 2 uM after 10 mins high-pressure liquid chromatography analysis
[3] = Drug metabolism assessed as recombinant CYP2B6.6 (unknown origin) expressed in insect cell microsomes-mediated R-2-ethyl-1,5-dimethyl-3,3-diphenylpyrrolidine formation at 0.25 to 2 uM after 10 mins high-pressure liquid chromatography analysis
[4] = Drug metabolism assessed as recombinant CYP2B6.6 (unknown origin) expressed in insect cell microsomes-mediated S-2-ethyl-1,5-dimethyl-3,3-diphenylpyrrolidine formation at 0.25 to 2 uM after 10 mins high-pressure liquid chromatography analysis

Row | Structure (SMILES) | Ks [1] [µM] | Ks [2] [µM] | Ks [3] [µM] | Ks [4] [µM]
1 | CCC(=O)C(CC(C)N(C)C)(c1ccccc1)c1ccccc1 (stereo in doubt) [METHADONE] | 75 | 25 | 97 | 40
2 | CCC(=O)C(CC(C)N(C)C)(c1ccccc1)c1ccccc1 (racemic) [METHADONE] | 40 | 13 | 57 | 20
